Reference: patent publication US8410049B2, “Methods and kits for preventing hypoglycemia” (Cebix, priority 2009, dated 2013)

Key:
[1] = system: type 1 diabetes patients with peripheral neuropathy; conditions: in vivo
[2] = system: C-peptide antibodies; test: Antibody formation against C-peptide, ELISA; format: in vivo, human; conditions: baseline and after 3 and 6 months of C-peptide treatment
Description: C-peptide plasma samples, C-peptide antibodies, and markers for atherosclerosis were processed (centrifuged, etc.) and stored frozen until transport to a central lab. HLA typing samples were shipped to a central lab for processing and storage until analysis. All samples there were labelled uniquely, including information about screening number and sample time.
Samples for the assessment of antibody formation were collected at baseline and at visits 2 and 4. An appropriate enzyme-linked immunoabsorbant assay (ELISA) method was developed and assessments carried out.

With `CC(C)C[C@H](NC(=O)[C@H](C)NC(=O)[C@H](CC(C)C)NC(=O)[C@@H]1CCCN1C(=O)[C@H](CCC(N)=O)NC(=O)[C@H](CC(C)C)NC(=O)[C@H](CO)NC(=O)CNC(=O)[C@H](C)NC(=O)CNC(=O)[C@@H]1CCCN1C(=O)CNC(=O)CNC(=O)CNC(=O)[C@H](CC(C)C)NC(=O)[C@H](CCC(=O)O)NC(=O)[C@@H](NC(=O)[C@H](CCC(N)=O)NC(=O)CNC(=O)[C@@H](NC(=O)[C@H](CCC(N)=O)NC(=O)[C@H](CC(C)C)NC(=O)[C@H](CC(=O)O)NC(=O)[C@H](CCC(=O)O)NC(=O)[C@H](C)NC(=O)[C@@H](N)CCC(=O)O)C(C)C)C(C)C)C(=O)N[C@@H](CCC(=O)O)C(=O)NCC(=O)N[C@@H](CO)C(=O)N[C@@H](CC(C)C)C(=O)N[C@@H](CCC(N)=O)C(=O)O` [C-peptide, Recombinant human C-peptide] the “AEs of any severity: Abdominal pain” value [1] was 3, the “AEs of any severity: Allergic urticaria” value [1] was 1 and the “AEs of any severity: Anemia” value [1] was 1. The “AEs of any severity: Aptyalism” value [1] was 1, the “AEs of any severity: Arterial disorder” value [1] was 1 and the “AEs of any severity: Arthralgia” value [1] was 3. The “AEs of any severity: Arthritis” value [1] was 1, the “AEs of any severity: Asthma” value [1] was 1 and the “AEs of any severity: Back pain” value [1] was 2. The “AEs of any severity: Blister” value [1] was 2, the “AEs of any severity: Bronchitis” value [1] was 1 and the “AEs of any severity: Burning sensation” value [1] was 1. The “AEs of any severity: Candidiasis” value [1] was 2, the “AEs of any severity: Cardiac arrhythmia” value [1] was 1 and the “AEs of any severity: Cardiac murmur” value [1] was 1. For the same compound, the “AEs of any severity: Carpal tunnel syndrome” value [1] was 1, the “AEs of any severity: Celiac disease” value [1] was 1 and the “AEs of any severity: Chest pain” value [1] was 2. The “AEs of any severity: Cough” value [1] was 1, the “AEs of any severity: Dacryocanaliculitis” value [1] was 1 and the “AEs of any severity: Depression” value [1] was 1. The “AEs of any severity: Dermatitis allergic” value [1] was 1, the “AEs of any severity: Dry skin” value [1] was 1 and the “AEs of any severity: Epicondylitis” value [1] was 1. The “AEs of any severity: Epistaxis” value [1] was 1, the “AEs of any severity: Exostosis” value [1] was 2 and the “AEs of any severity: Eye injury” value [1] was 1. The “AEs of any severity: Eye operation” value [1] was 1, the “AEs of any severity: Fatigue” value [1] was 2 and the “AEs of any severity: Feeling abnormal” value [1] was 3. The “AEs of any severity: Fibroma” value [1] was 1, the “AEs of any severity: Flatulence” value [1] was 1 and the “AEs of any severity: Food poisoning” value [1] was 1. For the same compound, the “AEs of any severity: Gastritis” value [1] was 1, the “AEs of any severity: Hematuria” value [1] was 1 and the “AEs of any severity: Hemorrhage” value [1] was 1. For the same compound, the “AEs of any severity: Hepatic enzyme increase” value [1] was 2, the “AEs of any severity: Hyperaesthesia” value [1] was 1 (1) and the “AEs of any severity: Hypercalcemia” value [1] was 1. The “AEs of any severity: Hyperlipidemia” value [1] was 1, the “AEs of any severity: Hypertension” value [1] was 1 and the “AEs of any severity: Hyperthermeasthesia” value [1] was 2 (2). The “AEs of any severity: Hypoaesthesia” value [1] was 2, the “AEs of any severity: Hypoglycemic coma” value [1] was 2 and the “AEs of any severity: Hypotension” value [1] was 1. The “AEs of any severity: Injection site burning” value [1] was 1 (1), the “AEs of any severity: Joint sprain ankle” value [1] was 1 and the “AEs of any severity: Knee injury” value [1] was 1. For the same compound, the “AEs of any severity: Leucopenia” value [1] was 1, the “AEs of any severity: Limb operation” value [1] was 1 and the “AEs of any severity: Lymph node enlargement” value [1] was 1. For the same compound, the “AEs of any severity: Macular edema” value [1] was 1, the “AEs of any severity: Menopausal disorder” value [1] was 1 and the “AEs of any severity: Menstration irregular” value [1] was 1. For the same compound, the “AEs of any severity: Migraine” value [1] was 1, the “AEs of any severity: Multiple sclerosis” value [1] was 1 and the “AEs of any severity: Muscle cramp” value [1] was 1. For the same compound, the “AEs of any severity: Muscle spasm” value [1] was 1, the “AEs of any severity: Muscular atrophy” value [1] was 1 and the “AEs of any severity: Musculoskeletal chest” value [1] was 1. The “AEs of any severity: Nasopharyngitis” value [1] was 23, the “AEs of any severity: Otitis” value [1] was 2 and the “AEs of any severity: Pain in neck” value [1] was 1. The “AEs of any severity: Pain in shoulder” value [1] was 1, the “AEs of any severity: Panic disorder” value [1] was 1 and the “AEs of any severity: Pharyngitis” value [1] was 2. The “AEs of any severity: Pregnancy” value [1] was 2, the “AEs of any severity: Pyrexia” value [1] was 3 and the “AEs of any severity: Reflux gastritis” value [1] was 2. For the same compound, the “AEs of any severity: Restless legs syndrome” value [1] was 1, the “AEs of any severity: Rheumarthritis” value [1] was 1 and the “AEs of any severity: Rib fracture/injury” value [1] was 2. The “AEs of any severity: ST elevation (ECG)” value [1] was 1, the “AEs of any severity: Scar” value [1] was 1 and the “AEs of any severity: Sciatica” value [1] was 1. For the same compound, the “AEs of any severity: Season allergy” value [1] was 1, the “AEs of any severity: Sensory loss” value [1] was 1 and the “AEs of any severity: Sepsis” value [1] was 1. For the same compound, the “AEs of any severity: Sinusitis” value [1] was 2, the “AEs of any severity: Skin infection” value [1] was 1 and the “AEs of any severity: Stress disorder” value [1] was 1. The “AEs of any severity: Sweating increased” value [1] was 1, the “AEs of any severity: Synovial disorder” value [1] was 1 and the “AEs of any severity: Tachycardia (stress)” value [1] was 1. For the same compound, the “AEs of any severity: Tendinitis” value [1] was 1, the “AEs of any severity: Tendinous contracture” value [1] was 1 and the “AEs of any severity: Tendosynovitis stenosans” value [1] was 1. For the same compound, the “AEs of any severity: Tonsilitis” value [1] was 2, the “AEs of any severity: Tooth extraction” value [1] was 1 and the “AEs of any severity: Tooth infection” value [1] was 2. For the same compound, the “AEs of any severity: Tooth injury” value [1] was 1, the “AEs of any severity: Torticollis” value [1] was 1 and the “AEs of any severity: Upper respiratory tract infection” value [1] was 1. For the same compound, the “AEs of any severity: Vertigo” value [1] was 1, the “AEs of any severity: Vision decreased” value [1] was 1 and the “AEs of any severity: Vitamin B12 deficiency” value [1] was 1. For the same compound, the “AEs of any severity: Vitreous hemorrhage” value [1] was 1, the “AEs of moderate intensity (M): Abdomnial pain” value [1] was “M (1)” and the “AEs of moderate intensity (M): Arthralgia” value [1] was “M (1)”. The “AEs of moderate intensity (M): Arthritis” value [1] was “M (1)”, the “AEs of moderate intensity (M): Arthropathy” value [1] was “M (1)” and the “AEs of moderate intensity (M): Back pain” value [1] was “M (1)”. For the same compound, the “AEs of moderate intensity (M): Bronchitis” value [1] was “M (1)”, the “AEs of moderate intensity (M): Carpal tunnel syndrome” value [1] was “M (1)” and the “AEs of moderate intensity (M): Celiac disease” value [1] was “M (1)”. For the same compound, the “AEs of moderate intensity (M): Dacryocanaliculitis” value [1] was “M (1)”, the “AEs of moderate intensity (M): Depression” value [1] was “M (1)” and the “AEs of moderate intensity (M): Dizziness” value [1] was “M (1)”. The “AEs of moderate intensity (M): Epicondylitis” value [1] was “M (1)”, the “AEs of moderate intensity (M): Fatigue” value [1] was “M (1)” and the “AEs of moderate intensity (M): Feeling abnormal” value [1] was “M (3)”. The “AEs of moderate intensity (M): Gastritis” value [1] was “M (1)”, the “AEs of moderate intensity (M): Gastroenteritis” value [1] was “M (3)” and the “AEs of moderate intensity (M): Hyperlipidemia” value [1] was “M (1)”. The “AEs of moderate intensity (M): Hypoglycemic coma” value [1] was “M (1)”, the “AEs of moderate intensity (M): Hypotension” value [1] was “M (1)” and the “AEs of moderate intensity (M): Knee injury” value [1] was “M (1)”. The “AEs of moderate intensity (M): Limb operation” value [1] was “M (1)”, the “AEs of moderate intensity (M): Migraine” value [1] was “M (1)” and the “AEs of moderate intensity (M): Muscle cramp” value [1] was “M (1)”. For the same compound, the “AEs of moderate intensity (M): Myalgia” value [1] was “M (2)”, the “AEs of moderate intensity (M): Nausea” value [1] was “M (1)” and the “AEs of moderate intensity (M): Otitis” value [1] was “M (1)”. For the same compound, the “AEs of moderate intensity (M): Pain in extremity” value [1] was “M (2)”, the “AEs of moderate intensity (M): Paraesthesia” value [1] was “M (1)” and the “AEs of moderate intensity (M): Pharyngitis” value [1] was “M (1)”. The “AEs of moderate intensity (M): Pyrexia” value [1] was “M (1)”, the “AEs of moderate intensity (M): Restless legs syndrome” value [1] was “M (1)” and the “AEs of moderate intensity (M): Rib fracture/injury” value [1] was “M (1); S (1)”. For the same compound, the “AEs of moderate intensity (M): ST elevation (ECG)” value [1] was “M (1)”, the “AEs of moderate intensity (M): Sciatica” value [1] was “M (1)” and the “AEs of moderate intensity (M): Stress disorder” value [1] was “M (1)”. The “AEs of moderate intensity (M): Tendinous” value [1] was “M (1)”, the “AEs of moderate intensity (M): Tonsillitis” value [1] was “M (1)” and the “AEs of moderate intensity (M): Vision decreased” value [1] was “M (1)”. The “AEs of moderate intensity (M): Vitreous hemorrhage” value [1] was “M (1)”, the “AEs of severe intensity (S): Diarrhea” value [1] was “S (1)” and the “AEs of severe intensity (S): Hepatic enzyme increase” value [1] was “S (1)”. The “AEs of severe intensity (S): Hyperglycemia” value [1] was “S (1)”, the “AEs of severe intensity (S): Hypoglycemia” value [1] was “M (1); S (1)” and the “AEs of severe intensity (S): Hypoglycemic coma” value [1] was “S (2)”. For the same compound, the “AEs of severe intensity (S): Pharyngitis” value [1] was “S (1)”, the “AEs of severe intensity (S): Pregnancy” value [1] was “S (1)” and the “AEs of severe intensity (S): Rib fracture/injury” value [1] was “M (1); S (1)”. For the same compound, the “AEs possibly related to study drug: Hepatic enzyme increase” value [1] was 1, the “AEs possibly related to study drug: Hyperaesthesia” value [1] was 1 (1) and the “AEs possibly related to study drug: Hyperglycemia” value [1] was 1 (1). The “AEs possibly related to study drug: Hyperthermeasthesia” value [1] was 2 (2), the “AEs possibly related to study drug: Hypoglycemia” value [1] was 1 and the “AEs possibly related to study drug: Injection site burning” value [1] was 1 (1). For the same compound, the “AEs possibly related to study drug: Pain in extremity” value [1] was 1, the “Adverse drug reactions or significant changes in safety variables” value [1] was “no adverse drug reactions” and the “Number of AEs probably/possibly related to study drug: Hyperglycemia” value [1] was 1 (1). For the same compound, the “Number of AEs probably/possibly related to study drug: Hypoglycemia” value [1] was 1, the “Number of AEs: Blood glucose fluctuation” value [1] was 0 and the “Number of AEs: Hypoglycemic coma” value [1] was 2. For the same compound, the “Number of AEs: Hypothyroidism” value [1] was 0, the “Number of AEs: Increased appetite” value [1] was 0 and the “Occurrences of hypoglycemic coma” value [1] was 4. For the same compound, the “Serious adverse events (SAEs)” value [1] was “Two SAEs”, the Tolerability [1] was “well tolerated” and the Local reactions ([1]; sc) was “No local reactions”. For the same compound, the “Antibody reactivity to C-peptide” value [2] was “no or very weak reactivity”.
